Results: ChEMBL document CHEMBL3271983, “Potential antitumor agents. 26. Anionic congeners of the 9-anilinoacridines” (J Med Chem, 1978)

Legend:
physchem [1] = experiment: physchem
Description: Dissociation constant, basic pKa of the compound by UV spectrophotometry

physchem [2] = experiment: physchem; remark: listed apart in the source
Description: Dissociation constant, acidic pKa of the compound by UV spectrophotometry

O=S(=O)(O)Cc1ccc(Nc2c3ccccc3nc3ccccc23)cc1
pKa (physchem [1]): 7.64

O=C(O)COc1ccc(Nc2c3ccccc3nc3ccccc23)cc1
pKa (physchem [1]): 8.19

O=S(=O)(O)CCc1ccc(Nc2c3ccccc3nc3ccccc23)cc1
pKa (physchem [1]): 7.77

O=C(O)c1cccc(Nc2c3ccccc3nc3ccccc23)c1
pKa (physchem [1]): 7.62

O=C(O)c1ccc(Nc2c3ccccc3nc3ccccc23)cc1
pKa (physchem [1]): 7.17
pKa (physchem [2]): 4.2

O=C(O)/C=C/c1ccc(Nc2c3ccccc3nc3ccccc23)cc1
pKa (physchem [1]): 7.17

NC(=O)CCc1ccc(Nc2c3ccccc3nc3ccccc23)cc1
pKa (physchem [1]): 7.63

O=C(O)CCc1ccc(Nc2c3ccccc3nc3ccccc23)cc1
pKa (physchem [1]): 7.91

CS(=O)(=O)Nc1cccc(Nc2c3ccccc3nc3ccccc23)c1
pKa (physchem [1]): 6.85

Cc1cccc2c(Nc3ccc(NS(C)(=O)=O)cc3)c3ccccc3nc12
pKa (physchem [1]): 7.15

NC(=O)c1ccc(Nc2c3ccccc3nc3ccccc23)cc1
pKa (physchem [1]): 6.47

NS(=O)(=O)c1ccc(Nc2c3ccccc3nc3ccccc23)cc1
pKa (physchem [1]): 6.11

O=[N+]([O-])c1ccc(Nc2c3ccccc3nc3ccccc23)cc1
pKa (physchem [1]): 5.58

O=C(O)Cc1ccc(Nc2c3ccccc3nc3ccccc23)cc1
pKa (physchem [1]): 7.92

CC(=O)Nc1ccc2c(Nc3ccc(C(=O)O)cc3)c3ccccc3nc2c1
pKa (physchem [1]): 7.42

NC(=O)Cc1ccc(Nc2c3ccccc3nc3ccccc23)cc1
pKa (physchem [1]): 7.43

NS(=O)(=O)Cc1ccc(Nc2c3ccccc3nc3ccccc23)cc1
pKa (physchem [1]): 7.05

O=S(=O)(O)c1ccc(Nc2c3ccccc3nc3ccccc23)cc1
pKa (physchem [1]): 6.87

N#Cc1ccc(Cc2c3ccccc3nc3ccccc23)cc1
pKa (physchem [1]): 5.93

COc1cc(C(=O)O)ccc1Nc1c2ccccc2nc2ccccc12
pKa (physchem [1]): 7.41

Nc1ccc2c(Nc3ccc(C(=O)O)cc3)c3ccccc3nc2c1
pKa (physchem [1]): 8.9

CS(=O)(=O)Nc1ccc(Nc2cc(N=[N+]=[N-])nc3ccccc23)cc1
pKa (physchem [1]): 7

CS(=O)(=O)Nc1ccc(Nc2c3ccccc3nc3c(C(N)=O)cccc23)cc1
pKa (physchem [1]): 6.12

O=C(O)c1ccccc1Nc1c2ccccc2nc2ccccc12
pKa (physchem [1]): 7.28

O=C(O)Cc1cccc(Nc2c3ccccc3nc3ccccc23)c1
pKa (physchem [1]): 7.82

O=C(O)Cc1ccccc1Nc1c2ccccc2nc2ccccc12
pKa (physchem [1]): 8.12

NS(=O)(=O)CCc1ccc(Nc2c3ccccc3nc3ccccc23)cc1
pKa (physchem [1]): 7.43

CC(=O)c1ccc(Cc2c3ccccc3nc3ccccc23)cc1
pKa (physchem [1]): 6.12

Brc1ccc(Cc2c3ccccc3nc3ccccc23)cc1
pKa (physchem [1]): 7

Clc1ccc(Cc2c3ccccc3nc3ccccc23)cc1
pKa (physchem [1]): 7.06

O=S(=O)(Nc1ccc(Cc2c3ccccc3nc3ccccc23)cc1)c1ccccc1
pKa (physchem [1]): 7.09

c1ccc(Cc2c3ccccc3nc3ccccc23)cc1
pKa (physchem [1]): 7.46

CC(=O)Nc1ccc(Cc2c3ccccc3nc3ccccc23)cc1
pKa (physchem [1]): 7.51

COC(=O)Nc1ccc(Cc2c3ccccc3nc3ccccc23)cc1
pKa (physchem [1]): 7.64

Cc1ccc(Cc2c3ccccc3nc3ccccc23)cc1
pKa (physchem [1]): 7.72

CNC(=O)Nc1ccc(Cc2c3ccccc3nc3ccccc23)cc1
pKa (physchem [1]): 7.77

COc1ccc(Cc2c3ccccc3nc3ccccc23)cc1
pKa (physchem [1]): 7.94

Nc1ccc(Cc2c3ccccc3nc3ccccc23)cc1
pKa (physchem [1]): 8.36

COc1cc(NS(C)(=O)=O)ccc1Cc1c2ccccc2nc2cc([N+](=O)[O-])ccc12
pKa (physchem [1]): 5.72

COc1cc(NS(C)(=O)=O)ccc1Cc1c2ccc([N+](=O)[O-])cc2nc2cc([N+](=O)[O-])ccc12
pKa (physchem [1]): 3.82

COc1cc(NS(C)(=O)=O)ccc1Cc1c2c(nc3ccccc13)CC(=N)C=C2
pKa (physchem [1]): 5.53

COc1cc(NS(C)(=O)=O)ccc1Cc1c2c(nc3ccccc13)C(=N)CC=C2
pKa (physchem [1]): 6.09

CS(=O)(=O)Nc1ccc(Nc2c3ccccc3nc3cc(I)ccc23)cc1
pKa (physchem [1]): 6.52

COC(=O)c1ccc(Nc2c3ccccc3nc3ccccc23)cc1
pKa (physchem [1]): 6.21

CN(c1ccc(Nc2c3ccccc3nc3ccccc23)cc1)S(C)(=O)=O
pKa (physchem [1]): 6.95

CC(=O)Nc1ccc2c(Nc3ccc(NS(C)(=O)=O)cc3)c3ccccc3nc2c1
pKa (physchem [1]): 7.34

COc1cc(NS(C)(=O)=O)ccc1Nc1c2ccccc2nc2ccccc12 [AMSACRINE]
pKa (physchem [1]): 7.43
